Reference: US20220304992A1, “METHODS OF REJUVENATING AGED TISSUE BY INHIBITING 15-HYDROXYPROSTAGLANDIN DEHYDROGENASE (15-PGDH)” (The Board of Trustees of the Leland Stanford Junior …, priority 2019, published 2022)
“Also recorded” adds a separate entry of the source.

Columns and labels:
[1] = test system: 15-PGDH (Hpgd); test: Senolytic ABT-263 treatment of aged mice: 15-PGDH in muscle; format: in vivo, mouse; settings: 20 month mice, analyzed 2 months later
Protocol: For ABT-263 treatments, 20 month old C57/B16 mice were treated with vehicle (ethanol:polyethylene glycol 400:Phosal 50 PG) or ABT-263 (in ethanol:polyethylene glycol 400:Phosal 50 PG) by oral gavage for 2 cycles of 1 week with a 2 week rest period between cycles as described previously (1). For the Duchenne muscular dystrophy (DMD) mouse model, we used 8-10 month old mdx4cv/mTRKO(G2) generated as previously described (2).
(§1) For ABT-263 treatments, 20 month old C57/B16 mice were treated with vehicle (ethanol:polyethylene glycol 400:Phosal 50 PG) or 50 mg/kg/day ABT-263 (in ethanol:polyethylene glycol 400:Phosal 50 PG) by oral gavage for 2 cycles of 1 week with a 2 week rest period between cycles as described previously (5). Intramuscular injection of PGE2 was carried out in young mice with either 13 nmol PGE2 (Cayman Chemicals) or vehicle control (PBS) into the TA muscle. Mouse transgenic strains were purchased from The Jackson Laboratory (EP4^flox/flox; EP4O) No. 028102 (6). We validated these genotypes by appropriate PCR-based strategies. Studies were performed with male mice.
We collected and prepared recipient Tibialis anterior (TA) or gastrocnemius (GA) muscle tissues for histology as previously described (6). […]

[2] = test system: INK-ATTAC mice; test: AP20187 clearance of senescent cells in INK-ATTAC mice; format: in vivo, mouse; settings: 16-month treatment
From the text: We performed all experiments and protocols in compliance with the institutional guidelines of Stanford University and Administrative Panel on Laboratory Animal Care (APLAC). Middle aged (18-20 mo.) and aged (>24 mo.) mice C57BL/6 were obtained the US National Institute on Aging (NIA) for aged muscle studies, and young (2-4 mo.) wild-type C57BL/6 mice from Jackson Laboratory. INK-ATTAC mice were generated as previously described (1). INK-ATTAC healthspan assessments. INK-ATTAC mice were crossed onto the C57BL6/J genetic background and maintained in specific-pathogen free housing on a 12-hour dark/light cycle for study duration. At 12 months of age, male mice were either utilized for baseline healthspan assessments and terminal muscle harvest or randomized to receive twice-weekly vehicle or AP20187 (2 mg/kg intraperitoneal injection; B/B homodimerizer, Clontech) until assessment and sacrifice at 28 months of age (2). […] Time and distance to exhaustion was performed as previously described (4) for SW-treated mice and their controls.
We isolated and enriched myogenic cells as previously described (6-9). Briefly, hindlimb muscles were minced and digested using a collagenase and dispase solution by the MACs Dissociator (Miltenyi). Using FACs, for myogenic stem and progenitor cells we isolated cells negative for the hematopoietic lineage and non-muscle cells (CD45-/CD11b-/CD31-/Scal-) and sorted for a7-integrin*cells markers. For macrophages isolation we sorted a7-/Cd11b+/Cd11c-/F4/80^+ populations. For endothelial cells we sorted a7-/Cd11b-/Cd11c/CD31+. We generated and analyzed flow cytometry scatter plots using FlowJo v10.0.

[3] = test system: myotubes; test: Differentiated (starved) cultured myotubes: Atrogin1 expression and diameter; format: cell-based, mouse
Protocol: For myotubes we performed fixation using 4% PFA, blocking and permeabilization using PBS/1% BSA/0.1% Triton X-100 and staining with primary antibodies anti-MyHC (Thermo Fisher Scientific, catalog #14-6503-82, clone MF-20, 1:500) and then with AlexaFluor secondary Antibodies (Jackson ImmunoResearch Laboratories, 1:500). We counterstained nuclei with DAPI (Invitrogen).
Primary myoblasts were grown in myogenic cell culture medium containing DMEM/F10 (50:50), 15% FBS, 2.5 ng ml-1 fibroblast growth factor-2 and 1% penicillin-streptomycin. For differentiation experiments, confluent myoblasts were grown in medium containing 5% horse serum, DMEM. […] Myoblasts were isolated from EP4^fl/fl mice and received either a mCherry/Cre lentivirus or a mock infection as previously described (5).
For cultured myotubes we performed fixation using 4% PFA, blocking and permeabilization using PBS/1% BSA/0.1% Triton X-100 and staining with primary antibodies anti-MYH (Thermo Fisher Scientific, catalog #14-6503-82, clone MF-20, 1:500) and then with AlexaFluor secondary Antibodies (Jackson ImmunoResearch Laboratories, 1:500). We counterstained nuclei with DAPI (Invitrogen). We acquired images using the KEYENCE BZ-X700 all-in-one fluorescence microscope (Keyence) with 20x/0.75 N.A. objectives. We analyzed the fiber area using the Keyence Advanced Analysis Software. For fiber area the entire maximum cross-sectional area of the muscle was quantified or at least 10 fields of LAMININ or WGA stained myofiber cross-sections encompassing over 400 myofibers were captured for each mouse as above. For fiber typing analysis, the MATLAB application SMASH-Semi-Automatic Muscle Analysis Using Segmentation of Histology, was used as previously described (12). Data analyses were blinded. The researchers performing the imaging acquisition and scoring were unaware of treatment condition given to sample groups analyzed.
Primary murine myoblasts were grown in myogenic cell culture medium containing DMEM/F10 (50:50), 15% FBS, 2.5 ng ml^−1 fibroblast growth factor-2 and 1% penicillin-streptomycin. […] For differentiation experiments, confluent myoblasts were grown in medium containing 5% horse serum, DMEM.

[4] = test system: murine myotubes; test: Protein synthesis by in vitro SUnSET (puromycin incorporation); format: cell-based, mouse; settings: PGE2 10 ng/ml daily, 4 d
Protocol: The SUnSET assay was used to monitor the rate of protein synthesis as previously described (4). Briefly, 10 min prior harvesting the cells, puromycin was added to culture medium at […]. As a control, cycloheximide to block protein translation was added. Cell extracts were then processed for western blotting using anti-puromycin 12D10 antibody (Millipore).

[5] = test system: AKT/FOXO pathway; test: Immunoblots of human myotubes treated with PGE2; format: cell-based; settings: PGE2 10 ng/ml, 15 or 30 minutes
Protocol: Primary murine myoblasts were grown in myogenic cell culture medium containing DMEM/F10 (50:50), 15% FBS, 2.5 ng ml^-1 fibroblast growth factor-2 and 1% penicillin-streptomycin. […] For differentiation experiments, confluent myoblasts were grown in medium containing 5% horse serum, DMEM. […] Total lysates were prepared using lysis buffer (50 mM Tris-HCl pH 7.5, 150 mM NaCl, 4 mM CaCl, 1.5% Triton X-100, protease inhibitors and micrococcal nuclease). […] We used the following antibodies: 15-PGDH (Santa Cruz Biotechnology, cat # sc-271418); phospho-AKT ([…]) (Cell Signaling cat #4060), AKT (Cell signaling cat #2920); phospho-FoxO1 ([…])/FoxO3a ([…]) Antibody (Cell Signaling cat #9464T); Foxo3a (Cell Signaling cat #2497); phospho-CREB (Ser133) (Cell Signaling cat #9198S); phospho-S6 ribosomal protein (Ser235/236) (Cell Signaling cat#4858); SMC1 (Bethyl Laboratories cat# […]). We used HRP conjugated secondary antibodies and developed by incubating the membranes with ECL Western Blotting Substrate (Nacalai USA) and imaging using the ChemiDoc Imaging System (BioRad).

[6] = test system: cyclic AMP response element binding protein (CREB); test: Immunoblots of muscle lysates after intramuscular PGE2; format: in vivo, mouse; settings: young mice, 13 nmol i.m., 0, 30 or 60 minutes
Protocol: as §1
Total lysates were prepared using lysis buffer (50 mM Tris-HCl pH 7.5, 150 mM NaCl, 4 mM CaCl, 1.5% Triton X-100, protease inhibitors and micrococcal nuclease). For tissue extracts, lysates were homogenized a FastPrep 24 homogenizer (MP Biomedicals) for 40 seconds at a speed of 6 m/s. We used the following antibodies: 15-PGDH (Santa Cruz Biotechnology, cat # sc-271418); phospho-AKT (Ser 473) (Cell Signaling cat #4060), AKT (Cell signaling cat #2920); phospho-FoxO1 (Thr24)/FoxO3a (Thr32) Antibody (Cell Signaling cat #9464T); Foxo3a (Cell Signaling cat #2497); phospho-CREB (Ser133) (Cell Signaling cat #9198S); phospho-S6 ribosomal protein (Ser235/236) (Cell Signaling cat#4858); SMC1 (Bethyl Laboratories cat# A300-055A-T). […]

`CC1(C)CCC(c2ccc(Cl)cc2)=C(CN2CCN(c3ccc(C(=O)NS(=O)(=O)c4ccc(N[C@H](CCN5CCOCC5)CSc5ccccc5)c(S(=O)(=O)C(F)(F)F)c4)cc3)CC2)C1` [ABT-263, navitoclax] was tested, and the “15-PGDH (Hpgd) mRNA / gene expression levels in muscle” value ([1]; 50 mg/kg/day oral gavage, 2 cycles, 50 mg/kg/day) was “reduced; also recorded: markedly decreased” and the “percentage of cells expressing 15-PGDH by immunohistochemistry” value [1] was “markedly decreased”.
In the case of `CC[C@H](C(=O)N1CCCC[C@H]1C(=O)O[C@H](CCc1ccc(OC)c(OC)c1)c1cccc(OCC(=O)NCC(CNC(=O)COc2cccc([C@@H](CCc3ccc(OC)c(OC)c3)OC(=O)[C@@H]3CCCCN3C(=O)[C@@H](CC)c3cc(OC)c(OC)c(OC)c3)c2)CN(C)C)c1)c1cc(OC)c(OC)c(OC)c1` [AP], the “15-PGDH levels in FACS isolated macrophages” value [2] is reported as “reduced levels”, the “PGE2 levels in muscle by LC-MS/MS” value [2] is reported as “increase” and the “15-PGDH transcript levels in muscle” value ([2]; 2 mg/kg i.p. twice weekly) is reported as “markedly reduced”. The “endurance (distance run on a treadmill until exhaustion and body weight)” value ([2]; 28 months) was “increase”, the grip strength ([2]; 28 months) was “increase” and the “hindlimb muscle mass (TA and GA)” value ([2]; 28 months) was “increase”.
In the case of `CC(C(=O)Nc1cc(C#N)ccc1CCCC(=O)O)c1ccc(F)c2ccccc12` (stereo not shown) [ONO-AE3-208], the “PGE2-induced increase of myotube diameter in the presence of the antagonist” value ([3]; ONO-AE3-208 1 μM with PGE2 10 ng/ml) is reported as “abrogated; also recorded: not seen”.
In the case of `CCCCC[C@H](O)/C=C/[C@H]1[C@H](O)CC(=O)[C@@H]1C/C=C\CCCC(=O)O` [PGE2, Prostaglandin E2], the “protein synthesis quantified by puromycin incorporation” value [4] is reported as “increased”, the myotube diameter ([3]; starved (24 hr) or non-starved myotubes, PGE2 10 ng/ml, SW 1 μM) is reported as “increased; also recorded: marked increase” and the Atrogin1 expression ([3]; starved myotubes, PGE2 10 ng/ml) is reported as “greatly decreased”. For the same molecule, the “FOXO (pFOXO3a)” value [5] was “inactivated”, the pAKT levels [5] was “increased levels” and the “phospho-S6 ribosomal protein (pS6rp)” value [5] was “activated”. For the same molecule, the “CREB activation in skeletal muscles” value [6] was “activates; also recorded: activation”.
